Laboratory results from ChEMBL document CHEMBL5058644, “Data for DCP probe JNJ-39758979” (2022).

What was measured:
[1] = target: C-C chemokine receptor type 1 (Homo sapiens) (UniProt P32246); assay: CCR1 (h) CEREP panel; settings: Compound concentration 1.0 uM
[2] = target: Adenosine receptor A1 (Homo sapiens) (UniProt P30542); assay: A1 (h) CEREP panel; settings: Compound concentration 1.0 uM
[3] = target: High affinity nerve growth factor receptor (Homo sapiens) (UniProt P04629); assay: TrkA(h) Millipore kinase panel; settings: Compound concentration 10.0 uM
[4] = target: ALK tyrosine kinase receptor (Homo sapiens) (UniProt Q9UM73); assay: ALK(h) Millipore kinase panel; settings: Compound concentration 10.0 uM
[5] = target: Neuromedin-K receptor (Homo sapiens) (UniProt P29371); assay: NK3 (h) CEREP panel; settings: Compound concentration 1.0 uM
[6] = species: Rattus norvegicus; assay: AMPK(r) Millipore kinase panel; settings: Compound concentration 10.0 uM
[7] = target: Neuropeptide Y receptor type 2 (Homo sapiens) (UniProt P49146); assay: Y2 (h) CEREP panel; settings: Compound concentration 1.0 uM
Neuropeptide Y receptor type 2 (Homo sapiens), sequence (P49146 whole entry): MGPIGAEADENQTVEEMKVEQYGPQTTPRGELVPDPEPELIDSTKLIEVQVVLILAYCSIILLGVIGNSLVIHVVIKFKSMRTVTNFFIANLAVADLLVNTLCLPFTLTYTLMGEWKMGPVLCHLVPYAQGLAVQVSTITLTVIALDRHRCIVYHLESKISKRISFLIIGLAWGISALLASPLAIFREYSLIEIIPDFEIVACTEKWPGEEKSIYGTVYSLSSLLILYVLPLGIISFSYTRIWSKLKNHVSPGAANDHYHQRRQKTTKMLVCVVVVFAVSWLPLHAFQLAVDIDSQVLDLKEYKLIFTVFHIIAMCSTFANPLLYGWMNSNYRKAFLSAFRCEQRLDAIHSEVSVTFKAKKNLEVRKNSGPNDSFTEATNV

[8] = target: Ribosomal protein S6 kinase alpha-5 (Homo sapiens) (UniProt O75582); assay: MSK1(h) Millipore kinase panel; settings: Compound concentration 10.0 uM
[9] = target: Neuropeptide Y receptor type 1 (Homo sapiens) (UniProt P25929); assay: Y1 (h) CEREP panel; settings: Compound concentration 1.0 uM
[10] = target: Proto-oncogene tyrosine-protein kinase ROS (Homo sapiens) (UniProt P08922); assay: Ros(h) Millipore kinase panel; settings: Compound concentration 10.0 uM
Proto-oncogene tyrosine-protein kinase ROS (Homo sapiens), sequence (P08922 whole entry): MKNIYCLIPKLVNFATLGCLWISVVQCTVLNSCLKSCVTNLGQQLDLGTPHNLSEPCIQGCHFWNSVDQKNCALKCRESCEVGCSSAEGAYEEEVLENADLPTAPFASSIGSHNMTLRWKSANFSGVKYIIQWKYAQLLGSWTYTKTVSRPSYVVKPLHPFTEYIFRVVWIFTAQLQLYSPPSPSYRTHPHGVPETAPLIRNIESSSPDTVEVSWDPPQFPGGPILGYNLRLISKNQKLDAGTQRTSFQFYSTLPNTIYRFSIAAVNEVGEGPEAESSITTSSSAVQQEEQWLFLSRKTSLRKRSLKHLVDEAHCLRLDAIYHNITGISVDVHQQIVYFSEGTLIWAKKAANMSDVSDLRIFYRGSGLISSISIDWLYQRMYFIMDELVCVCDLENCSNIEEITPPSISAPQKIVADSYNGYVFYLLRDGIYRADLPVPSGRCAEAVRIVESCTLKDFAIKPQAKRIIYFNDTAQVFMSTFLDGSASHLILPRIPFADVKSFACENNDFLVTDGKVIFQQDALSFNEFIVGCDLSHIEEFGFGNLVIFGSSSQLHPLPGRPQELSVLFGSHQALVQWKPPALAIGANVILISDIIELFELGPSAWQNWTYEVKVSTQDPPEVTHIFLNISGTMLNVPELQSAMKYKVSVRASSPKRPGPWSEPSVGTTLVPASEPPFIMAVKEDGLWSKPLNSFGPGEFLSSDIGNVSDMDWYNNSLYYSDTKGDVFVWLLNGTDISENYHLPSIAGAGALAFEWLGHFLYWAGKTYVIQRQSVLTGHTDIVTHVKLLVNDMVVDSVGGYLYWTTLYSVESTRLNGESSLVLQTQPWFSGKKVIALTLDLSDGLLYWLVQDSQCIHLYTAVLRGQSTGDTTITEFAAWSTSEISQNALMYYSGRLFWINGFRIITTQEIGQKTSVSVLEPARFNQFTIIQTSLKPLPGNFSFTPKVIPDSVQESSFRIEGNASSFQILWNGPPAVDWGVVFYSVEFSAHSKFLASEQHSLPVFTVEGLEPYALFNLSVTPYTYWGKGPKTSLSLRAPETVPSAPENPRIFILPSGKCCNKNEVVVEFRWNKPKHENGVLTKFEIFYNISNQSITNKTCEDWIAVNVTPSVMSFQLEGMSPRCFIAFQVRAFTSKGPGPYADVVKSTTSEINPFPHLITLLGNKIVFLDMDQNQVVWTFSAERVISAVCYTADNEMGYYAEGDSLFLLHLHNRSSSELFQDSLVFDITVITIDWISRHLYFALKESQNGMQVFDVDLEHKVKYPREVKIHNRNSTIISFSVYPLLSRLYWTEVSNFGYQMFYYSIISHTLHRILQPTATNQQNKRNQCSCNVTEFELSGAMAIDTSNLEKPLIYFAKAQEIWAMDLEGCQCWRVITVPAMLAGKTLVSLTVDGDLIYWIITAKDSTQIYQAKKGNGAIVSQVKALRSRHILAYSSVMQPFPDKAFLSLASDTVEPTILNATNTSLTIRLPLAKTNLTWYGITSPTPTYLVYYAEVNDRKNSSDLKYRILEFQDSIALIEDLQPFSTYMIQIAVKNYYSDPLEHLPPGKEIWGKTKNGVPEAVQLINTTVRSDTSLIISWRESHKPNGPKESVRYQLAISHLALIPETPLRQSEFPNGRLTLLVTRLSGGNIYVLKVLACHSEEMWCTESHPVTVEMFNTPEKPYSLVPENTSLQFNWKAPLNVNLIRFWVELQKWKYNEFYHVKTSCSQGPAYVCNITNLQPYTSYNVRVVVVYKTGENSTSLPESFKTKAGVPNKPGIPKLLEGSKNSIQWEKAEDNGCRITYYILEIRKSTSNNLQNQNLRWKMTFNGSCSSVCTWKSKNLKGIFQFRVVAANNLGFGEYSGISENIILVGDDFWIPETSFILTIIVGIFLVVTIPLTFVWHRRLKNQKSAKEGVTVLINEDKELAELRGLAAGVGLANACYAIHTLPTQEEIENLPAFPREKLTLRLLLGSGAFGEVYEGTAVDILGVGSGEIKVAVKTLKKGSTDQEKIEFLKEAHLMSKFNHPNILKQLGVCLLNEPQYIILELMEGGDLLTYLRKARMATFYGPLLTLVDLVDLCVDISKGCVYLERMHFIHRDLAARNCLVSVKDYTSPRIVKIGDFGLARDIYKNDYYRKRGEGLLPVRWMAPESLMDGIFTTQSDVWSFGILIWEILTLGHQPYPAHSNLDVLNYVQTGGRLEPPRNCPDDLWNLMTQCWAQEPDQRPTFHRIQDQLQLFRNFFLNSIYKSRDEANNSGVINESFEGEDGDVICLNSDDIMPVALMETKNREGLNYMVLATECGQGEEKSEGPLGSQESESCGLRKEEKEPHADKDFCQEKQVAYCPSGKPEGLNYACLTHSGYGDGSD

[11] = target: 5-hydroxytryptamine receptor 5A (Homo sapiens) (UniProt P47898); assay: 5-HT5A (h) (5-ht5a) CEREP panel; settings: Compound concentration 1.0 uM
[12] = target: Ribosomal protein S6 kinase beta-1 (Homo sapiens) (UniProt P23443); assay: p70S6K(h) Millipore kinase panel; settings: Compound concentration 10.0 uM
[13] = sst (non-selective) CEREP panel; settings: Compound concentration 1.0 uM
[14] = target: Beta-1 adrenergic receptor (Homo sapiens) (UniProt P08588); assay: beta 1 (h) CEREP panel; settings: Compound concentration 1.0 uM
[15] = target: Muscarinic acetylcholine receptor M1 (Homo sapiens) (UniProt P11229); assay: M1 (h) CEREP panel; settings: Compound concentration 1.0 uM
[16] = target: Vasoactive intestinal polypeptide receptor 1 (Homo sapiens) (UniProt P32241); assay: VIP1 (h) (VPAC1) CEREP panel; settings: Compound concentration 1.0 uM
Vasoactive intestinal polypeptide receptor 1 (Homo sapiens), sequence (P32241 whole entry): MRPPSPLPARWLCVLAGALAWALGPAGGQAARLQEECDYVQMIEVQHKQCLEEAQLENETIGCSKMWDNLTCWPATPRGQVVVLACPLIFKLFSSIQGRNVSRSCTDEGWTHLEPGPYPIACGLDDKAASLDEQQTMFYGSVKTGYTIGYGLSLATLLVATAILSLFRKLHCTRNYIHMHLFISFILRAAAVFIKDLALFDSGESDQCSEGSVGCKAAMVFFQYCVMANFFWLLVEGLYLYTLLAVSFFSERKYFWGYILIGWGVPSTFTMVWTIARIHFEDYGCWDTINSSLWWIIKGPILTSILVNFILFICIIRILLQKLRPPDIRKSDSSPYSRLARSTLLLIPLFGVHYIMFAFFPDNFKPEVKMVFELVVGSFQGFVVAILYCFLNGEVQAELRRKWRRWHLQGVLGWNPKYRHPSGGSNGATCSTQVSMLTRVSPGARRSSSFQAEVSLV

[17] = target: 5-hydroxytryptamine receptor 1B (Homo sapiens) (UniProt P28222); assay: 5-HT1B CEREP panel; settings: Compound concentration 1.0 uM
[18] = target: RAC-gamma serine/threonine-protein kinase (Homo sapiens) (UniProt Q9Y243); assay: PKBγ(h) Millipore kinase panel; settings: Compound concentration 10.0 uM
[19] = Ca2+ channel CEREP panel; settings: Compound concentration 1.0 uM
[20] = target: Tyrosine-protein kinase CSK (Homo sapiens) (UniProt P41240); assay: CSK(h) Millipore kinase panel; settings: Compound concentration 10.0 uM
[21] = target: D(1A) dopamine receptor (Homo sapiens) (UniProt P21728); assay: D1 (h) CEREP panel; settings: Compound concentration 1.0 uM
D(1A) dopamine receptor (Homo sapiens), sequence (P21728 whole entry): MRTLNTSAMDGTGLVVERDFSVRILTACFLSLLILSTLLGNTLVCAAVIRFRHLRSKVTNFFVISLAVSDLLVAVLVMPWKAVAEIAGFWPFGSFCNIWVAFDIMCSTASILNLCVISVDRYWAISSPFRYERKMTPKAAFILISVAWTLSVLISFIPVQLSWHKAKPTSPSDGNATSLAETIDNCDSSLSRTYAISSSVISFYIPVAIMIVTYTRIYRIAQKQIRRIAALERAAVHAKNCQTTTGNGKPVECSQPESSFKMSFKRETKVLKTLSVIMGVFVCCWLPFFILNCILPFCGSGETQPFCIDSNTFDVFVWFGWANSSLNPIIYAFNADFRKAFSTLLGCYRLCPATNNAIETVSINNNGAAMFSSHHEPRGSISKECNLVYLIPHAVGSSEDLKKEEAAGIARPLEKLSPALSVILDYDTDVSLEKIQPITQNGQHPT

[22] = target: Serine/threonine-protein kinase STK11 (Homo sapiens) (UniProt Q15831); assay: LKB1(h) Millipore kinase panel; settings: Compound concentration 10.0 uM
[23] = GABA (non-selective) CEREP panel; settings: Compound concentration 1.0 uM
[24] = target: Tyrosine-protein kinase Fer (Homo sapiens) (UniProt P16591); assay: Fer(h) Millipore kinase panel; settings: Compound concentration 10.0 uM
[25] = target: Sodium-dependent dopamine transporter (Homo sapiens) (UniProt Q01959); assay: DA transporter (h) CEREP panel; settings: Compound concentration 1.0 uM
[26] = target: Adenosine receptor A2a (Homo sapiens) (UniProt P29274); assay: A2A (h) CEREP panel; settings: Compound concentration 1.0 uM
Adenosine receptor A2a (Homo sapiens), sequence (P29274 whole entry): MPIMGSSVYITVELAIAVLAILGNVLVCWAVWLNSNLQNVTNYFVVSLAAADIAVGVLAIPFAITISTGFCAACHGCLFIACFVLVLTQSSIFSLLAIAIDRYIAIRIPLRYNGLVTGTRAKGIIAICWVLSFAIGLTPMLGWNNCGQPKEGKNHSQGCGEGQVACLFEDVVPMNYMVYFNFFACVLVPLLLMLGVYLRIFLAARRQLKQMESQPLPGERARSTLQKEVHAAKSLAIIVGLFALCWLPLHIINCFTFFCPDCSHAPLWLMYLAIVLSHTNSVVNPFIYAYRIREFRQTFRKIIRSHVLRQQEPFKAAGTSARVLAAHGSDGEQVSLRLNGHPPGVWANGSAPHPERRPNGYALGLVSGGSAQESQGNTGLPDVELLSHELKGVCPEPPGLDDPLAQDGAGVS

[27] = target: Glycogen synthase kinase-3 alpha (Homo sapiens) (UniProt P49840); assay: GSK3α(h) Millipore kinase panel; settings: Compound concentration 10.0 uM
[28] = target: Adrenergic receptor alpha-1 (Homo sapiens) (UniProt P35348+P25100+P35368); assay: alpha 1 (non-selective) CEREP panel; settings: Compound concentration 1.0 uM
[29] = target: Tyrosine-protein kinase ABL1 (Homo sapiens) (UniProt P00519); assay: Abl(h) Millipore kinase panel; settings: Compound concentration 10.0 uM
[30] = SK+Ca channel CEREP panel; settings: Compound concentration 1.0 uM
[31] = target: C-X-C chemokine receptor type 2 (Homo sapiens) (UniProt P25025); assay: IL-8B (h) (CXCR2) CEREP panel; settings: Compound concentration 1.0 uM
[32] = target: Muscarinic acetylcholine receptor M2 (Homo sapiens) (UniProt P08172); assay: M2 (h) CEREP panel; settings: Compound concentration 1.0 uM
[33] = target: Endothelin-1 receptor (Homo sapiens) (UniProt P25101); assay: ETA (h) CEREP panel; settings: Compound concentration 1.0 uM
[34] = target: Testis-specific serine/threonine-protein kinase 1 (Homo sapiens) (UniProt Q9BXA7); assay: TSSK1(h) Millipore kinase panel; settings: Compound concentration 10.0 uM
[35] = target: Casein kinase I isoform delta (Homo sapiens) (UniProt P48730); assay: CK1δ(h) Millipore kinase panel; settings: Compound concentration 10.0 uM
Casein kinase I isoform delta (Homo sapiens), sequence (P48730 whole entry, looked up, canonical isoform): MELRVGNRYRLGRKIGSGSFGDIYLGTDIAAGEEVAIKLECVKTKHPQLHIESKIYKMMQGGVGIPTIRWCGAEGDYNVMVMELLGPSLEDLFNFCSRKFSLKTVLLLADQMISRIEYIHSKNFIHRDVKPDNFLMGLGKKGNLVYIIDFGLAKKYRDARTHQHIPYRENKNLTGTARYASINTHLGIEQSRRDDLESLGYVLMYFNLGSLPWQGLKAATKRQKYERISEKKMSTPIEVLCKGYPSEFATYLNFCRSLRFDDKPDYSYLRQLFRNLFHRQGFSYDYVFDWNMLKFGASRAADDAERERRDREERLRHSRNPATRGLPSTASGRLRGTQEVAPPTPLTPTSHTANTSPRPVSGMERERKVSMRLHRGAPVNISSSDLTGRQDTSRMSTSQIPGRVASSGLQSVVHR

[36] = target: Tyrosine-protein kinase JAK2 (Homo sapiens) (UniProt O60674); assay: JAK2(h) Millipore kinase panel; settings: Compound concentration 10.0 uM
[37] = target: Serine/threonine-protein kinase WNK2 (Homo sapiens) (UniProt Q9Y3S1); assay: WNK2(h) Millipore kinase panel; settings: Compound concentration 10.0 uM
[38] = target: Substance-K receptor (Homo sapiens) (UniProt P21452); assay: NK2 (h) CEREP panel; settings: Compound concentration 1.0 uM
[39] = target: Focal adhesion kinase 1 (Homo sapiens) (UniProt Q05397); assay: FAK(h) Millipore kinase panel; settings: Compound concentration 10.0 uM
[40] = target: LIM domain kinase 1 (Homo sapiens) (UniProt P53667); assay: LIMK1(h) Millipore kinase panel; settings: Compound concentration 10.0 uM
[41] = K+V channel CEREP panel; settings: Compound concentration 1.0 uM
[42] = target: Cyclin-dependent kinase 2 (Homo sapiens) (UniProt P24941); assay: CDK2/cyclinA(h) Millipore kinase panel; settings: Compound concentration 10.0 uM
[43] = target: RAC-beta serine/threonine-protein kinase (Homo sapiens) (UniProt P31751); assay: PKBβ(h) Millipore kinase panel; settings: Compound concentration 10.0 uM
[44] = target: Cholecystokinin receptor type A (Homo sapiens) (UniProt P32238); assay: CCKA (h) (CCK1) CEREP panel; settings: Compound concentration 1.0 uM
Cholecystokinin receptor type A (Homo sapiens), sequence (P32238 whole entry): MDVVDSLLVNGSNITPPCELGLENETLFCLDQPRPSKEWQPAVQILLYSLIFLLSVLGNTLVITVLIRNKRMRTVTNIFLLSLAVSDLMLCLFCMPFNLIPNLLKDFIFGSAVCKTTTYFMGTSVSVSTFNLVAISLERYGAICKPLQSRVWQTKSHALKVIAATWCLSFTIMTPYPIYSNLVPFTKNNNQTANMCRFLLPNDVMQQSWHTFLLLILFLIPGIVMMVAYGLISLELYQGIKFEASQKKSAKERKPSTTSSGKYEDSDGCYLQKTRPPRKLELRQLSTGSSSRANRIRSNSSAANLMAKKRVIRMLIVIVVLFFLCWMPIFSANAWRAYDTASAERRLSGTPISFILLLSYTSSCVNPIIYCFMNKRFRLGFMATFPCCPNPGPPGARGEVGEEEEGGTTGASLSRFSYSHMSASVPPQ

[45] = target: Proto-oncogene tyrosine-protein kinase receptor Ret (Homo sapiens) (UniProt P07949); assay: Ret(h) Millipore kinase panel; settings: Compound concentration 10.0 uM
[46] = BZD (central) CEREP panel; settings: Compound concentration 1.0 uM
[47] = target: 5-hydroxytryptamine receptor 7 (Homo sapiens) (UniProt P34969); assay: 5-HT7 (h) CEREP panel; settings: Compound concentration 1.0 uM
[48] = target: Melanocortin receptor 4 (Homo sapiens) (UniProt P32245); assay: MC4 (h) CEREP panel; settings: Compound concentration 1.0 uM
[49] = target: 5-hydroxytryptamine receptor 6 (Homo sapiens) (UniProt P50406); assay: 5-HT6 (h) (5-ht6) CEREP panel; settings: Compound concentration 1.0 uM
[50] = target: Mitogen-activated protein kinase kinase kinase 9 (Homo sapiens) (UniProt P80192); assay: MLK1(h) Millipore kinase panel; settings: Compound concentration 10.0 uM

Measured: inhibition

CC(C)c1cc(N2CC[C@@H](N)C2)nc(N)n1
inactive: [1] < 10% | [2] < 10% | [3] 13% | [4] 12% | [5] < 10% | [6] 1% | [7] < 10% | [8] 6% | [9] < 10% | [10] 6% | [11] < 10% | [12] 8% | [13] < 10% | [14] < 10% | [15] 19% | [16] < 10% | [17] < 10% | [18] -3% | [19] < 10% | [20] -9% | [21] < 10% | [22] 0% | [23] < 10% | [24] -8% | [25] 18% | [26] < 10% | [27] 8% | [28] < 10% | [29] -2% | [30] < 10% | [31] < 10% | [32] < 10% | [33] 15% | [34] 16% | [35] 1% | [36] -7% | [37] -5% | [38] < 10% | [39] -1% | [40] -10% | [41] < 10% | [42] -3% | [43] -5% | [44] < 10% | [45] -6% | [46] < 10% | [47] < 10% | [48] < 10% | [49] < 10% | [50] 6%
